Assay results: article PMC11514049, “The Tmem16a chloride channel is required for mucin maturation after secretion from goblet-like cells in the Xenopus tropicalis tadpole skin” (Scientific Reports, 2024)
Like-named read-outs stand apart in the source and are kept apart here. Each block holds one compound with its values, some of them ahead of it.

Columns and labels:
X. tropicalis Tmem16a = X. tropicalis Tmem16a (Xenopus tropicalis, UniProt W8PFC5); experiment: Whole-cell patch clamp (QPatch) of X. tropicalis Tmem16a transfected into HEK293 cells; assay type: cell-based
Description: We cloned and expressed full-length X. tropicalis tmem16a in HEK293 cells. At 48 h post-transfection, channel conductance and pharmacological characteristics were examined by whole-cell voltage clamp. Tmem16a channel activity was evoked using membrane depolarisation in the presence of intracellular calcium, and resultant whole-cell currents measured using chloride-selective buffers.
HEK Flp-In-293 null cells (Thermo Fisher) were stored, thawed and cultured as described by the supplier, but without antibiotic supplementation of the growth medium. For transfections, cells were seeded in 75 cm^2 vented culture flasks at a density of 0.018 × 10^6 cells per cm^2 and maintained at 37 °C in 5% CO2 for 24 h, to ensure approximately 40% confluence at the point of transfection. Cells were transfected with 6 µg of pCS2-tmem16a plasmid in a 1:6 volume ratio with transfection reagent GeneJammer (Agilent), according to the manufacturer’s protocol. Transfected cells were maintained in antibiotic-free growth medium at 37 °C in 5% CO2 for 24 h. The transfection medium was then aspirated, replaced with complete growth medium containing 1% penicillin-streptomycin (GIBCO), and cells cultured for a further 24 h at 37 °C in 5% CO2 to achieve 70–80% confluence prior to electrophysiology studies. HEK cells expressing Tmem16a were harvested using a 2:1 volume ratio of Detachin (AMSBio) and 0.05% Trypsin-EDTA (GIBCO), and resuspended in CHO serum-free medium (GIBCO) supplemented with 25 mM HEPES (GIBCO) and 0.04 mg ml^−1 trypsin inhibitor (Sigma Aldrich) to a density of 2.5-5.0 × 10^6 cells ml^−1. […] To prevent clumping of the suspended cells prior to assay, the cell suspension was maintained by stirring gently but continually at room temperature for 20 min to 2 hours.
Single cell whole-cell patch clamp recordings were performed using the QPatch planar patch-clamp system (Sophion Biosciences). The automated platform resuspended the cells in extracellular buffer containing NMDG-Cl (130 mM), HEPES (10 mM), CaCl2 (2 mM) and MgCl2 (1 mM), adjusted to pH 7.30 using HCl and 325 mOsm using sucrose. On establishing single-cell giga-Ohm seals, cell membranes were ruptured by suction pulse and dialysed with intracellular solution containing NMDG-Cl (130 mM), EGTA (20 mM), CaCl2 (20 mM; calculated to deliver a free intracellular [Ca^2+] of 338 nM (https://somapp.ucdmc.ucdavis.edu/pharmacology/bers/maxchelator/webmaxc/webmaxcE.htm) at 22 °C to achieve high Tmem16a-mediated current activation for testing inhibitor compounds), HEPES (10 mM), BAPTA (10 mM), MgCl2 (1 mM) and Mg-ATP (2 mM), adjusted to pH 7.25 using HCl and 325 mOsm using sucrose. The calcium activation curve was achieved by varying CaCl2 concentration from 0 to 25.7 mM to generate a 0-1000 nM range of free intracellular [Ca^2+].
Whole-cell recordings were performed from a resting membrane potential of - 70 mV, applied across the cell membrane between an intracellular (working) and extracellular (reference) electrode in each QPatch recording well. To activate Tmem16a currents, the membrane was depolarised once every 20 s for a duration of 1 s. For concentration-response experiments, this depolarising step was set to + 70 mV. To test current-voltage relationship, the depolarisations were varied between − 90 and + 90 mV in 20 mV increments. Signals were subject to fourth-order Bessel filtering (sampling frequency 10 kHz, cut-off 3 kHz). Capacitance and series resistance were monitored throughout the recordings; data was only accepted from wells in which these parameters remained stable.
All current data was captured at the end of the 1 s depolarising voltage step.

human TMEM16Aacd = conditions: cited from earlier work
human TMEM16Aabc = conditions: whole-cell patch clamp ref 65; cited from earlier work
[1] = test system: background chloride current of sham HEK-293 transfects; experiment: Whole-cell patch clamp of sham-transfected HEK cells (background chloride current); assay type: cell-based; conditions: 100 µM CaCCinh-A01
Text: Methods: Pharmacology data was generated from 16 QPatch runs. […] This definition of ‘transfected’ vs ‘untransfected’ was established by comparing transfected cell recordings with ‘sham’ transfects, i.e. cells that had undergone the same transfection process but with the omission of plasmid DNA (Supplementary Figure S1). […] Cells with these characteristics were deemed to be expressing X. tropicalis Tmem16a, and only recordings from successfully-transfected cells which additionally passed seal/series resistance and capacitance quality control criteria, were used in analysis of X. tropicalis Tmem16a currents.

human TMEM16A = conditions: cited from earlier work
[2] = test system: MucXS secretion from tadpole skin; experiment: Ionomycin-induced MucXS secretion into tadpole media (slot blot, anti-MucXS); assay type: in vivo, Xenopus tropicalis; conditions: 10 min, MO- vs MOC-injected embryos, three biological replicates, p = 0.0062
Description: (§1) Embryos for microinjection were de-jellied for approximately five minutes in 0.1 X MMR containing 2% (w/v) L-cysteine (pH 7.8), and washed several times in 0.1 X MMR. Microinjections were performed at NF1/fertilised egg (or, where indicated in the text, NF4/8-cell stage) using a Picospritzer III microinjector (Intracel) to inject 1–4 nl volumes. During injection and for one hour after, embryos were maintained in 0.1 X MMR containing 2% (w/v) Ficoll™ 400 (Thermo Fisher). Antisense morpholino oligonucleotides (MO) and standard control MO (MOC) were designed by and purchased from Gene Tools LLC. MO sequences were: MOC 5′-[…]-3′; tmem16a splice MO 5’-[…]-3’. MOs were reconstituted to 20 ng nl^−1 in non-DEPC-treated nuclease-free water (Thermo Fisher) and stored in small aliquots in tightly-sealed vials at room temperature. MOs were heated at 65 °C for five minutes then vortexed before dilution/use, to ensure the MO was fully dissolved. […]
Batches of 100 NF42 embryos were collected in 500 µl 0.01 X MMR in a single well of a 24-well plate. […] MucXS in unfractionated or fractionated media was detected via slot blotting and subsequent immunodetection with an anti-MucXS antibody. Quantification of signal from slot blots was achieved using Fiji v2.14.0 software to capture the raw integrated density of pixels for each signal band. […]

Tmem16a = experiment: Wholemount immunofluorescence for Tmem16a in tadpole skin after morpholino injection; assay type: in vivo, Xenopus tropicalis; conditions: 15 ng MO injected into fertilised egg, tadpoles at NF38, vs MOC
Description: as §1
Wholemount chromogenic and fluorescence in situ hybridisation was performed as previously described[84],[85]. […] Chromogenic staining and fluorescence were visualised by stereomicroscopy (Leica M165 FC using Leica Application Suite X v5.2.2 software) and fluorescence by confocal imaging (Olympus IX81 using FV10-ASW v4.2 software). […] Fiji v2.14.0 software[88] was used to convert images into colours accesible to colour-blind readers.

[3] = maximally-active current, 338 nM free [Ca2+]i (EC100), +70 mV, HEK293, mean ± SEM, read-out: IC50 X. tropicalis Tmem16a

Sequence of X. tropicalis Tmem16a (W8PFC5 entry or part of it): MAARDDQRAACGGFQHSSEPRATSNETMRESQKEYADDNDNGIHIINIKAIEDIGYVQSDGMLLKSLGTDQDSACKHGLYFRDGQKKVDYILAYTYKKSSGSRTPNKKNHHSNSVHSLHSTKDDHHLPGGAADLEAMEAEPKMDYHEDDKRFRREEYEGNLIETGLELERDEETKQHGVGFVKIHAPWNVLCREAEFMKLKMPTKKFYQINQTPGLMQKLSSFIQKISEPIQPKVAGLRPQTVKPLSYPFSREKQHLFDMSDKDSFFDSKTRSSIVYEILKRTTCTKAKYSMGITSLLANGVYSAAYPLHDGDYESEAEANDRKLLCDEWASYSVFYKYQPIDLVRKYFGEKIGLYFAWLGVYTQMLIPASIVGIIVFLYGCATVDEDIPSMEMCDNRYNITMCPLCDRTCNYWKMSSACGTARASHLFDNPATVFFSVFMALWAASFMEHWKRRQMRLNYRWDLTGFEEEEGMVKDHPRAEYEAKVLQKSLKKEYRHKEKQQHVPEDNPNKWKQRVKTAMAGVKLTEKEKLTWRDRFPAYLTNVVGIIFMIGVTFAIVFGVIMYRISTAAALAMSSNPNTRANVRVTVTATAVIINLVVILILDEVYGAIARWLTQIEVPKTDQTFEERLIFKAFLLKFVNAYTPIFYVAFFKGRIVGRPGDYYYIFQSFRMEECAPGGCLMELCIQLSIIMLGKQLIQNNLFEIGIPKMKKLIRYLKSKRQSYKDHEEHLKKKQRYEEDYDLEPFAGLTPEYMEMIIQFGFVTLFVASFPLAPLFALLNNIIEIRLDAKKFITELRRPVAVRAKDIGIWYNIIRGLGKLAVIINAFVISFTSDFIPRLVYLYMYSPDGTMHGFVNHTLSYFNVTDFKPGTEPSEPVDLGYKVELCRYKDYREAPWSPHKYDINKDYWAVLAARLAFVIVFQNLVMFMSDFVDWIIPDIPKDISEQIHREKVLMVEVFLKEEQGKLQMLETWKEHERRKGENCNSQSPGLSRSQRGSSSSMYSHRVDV

Compound: O=C(O)c1c2ccccc2cc2ccccc12 [9-AC]
IC50 (X. tropicalis Tmem16a; [3]): 146 ± 65.8 µM
IC50 (human TMEM16Aacd; whole-cell patch clamp ref 60): 57.7 µM

Block of large slowly-activating current in tmem16a-transfected cells (X. tropicalis Tmem16a; 10 µM Ani9): sensitivity to block
Inhibition of evoked Tmem16a current (X. tropicalis Tmem16a; 10 µM Ani9, 1 s step from -70 to +70 mV, 338 nM free [Ca2+]i): completely inhibited
Inhibition of Tmem16a current conductance at varied [Ca2+]i (X. tropicalis Tmem16a; 10 µM Ani9, all calcium concentrations, fixed depolarisation voltage): inhibited at all calcium concentrations
IC50 (X. tropicalis Tmem16a; [3]): 0.098 ± 0.009 µM
Compound: COc1ccccc1/C=N/NC(=O)COc1ccc(Cl)cc1C [Ani9]

Compound: CCc1oc2ccccc2c1C(=O)c1cc(Br)c(O)c(Br)c1 [Benzbromarone]
IC50 (human TMEM16Aabc): 3.05 µM
IC50 (X. tropicalis Tmem16a): 3.3 ± 1.45 µM
IC50 (human TMEM16Aacd; whole-cell patch clamp ref 63): 4.09 µM
IC50 (human TMEM16Aacd; whole-cell patch clamp ref 64): 2.35 µM

Compound: O=C(O)c1ccc(/C=C2\SC(=S)N(c3cccc(C(F)(F)F)c3)C2=O)cc1 [CFTR Inh-172]
IC50 (X. tropicalis Tmem16a; [3]): > 30 µM

Compound: CC(C)(C)C1CCc2c(sc(NC(=O)c3ccco3)c2C(=O)O)C1 (stereo not shown) [CaCCinhA01]
Block of large slowly-activating current in tmem16a-transfected cells (X. tropicalis Tmem16a; 100 µM CaCCinh-A01): sensitivity to block
IC50 (X. tropicalis Tmem16a; [3]): 12.9 ± 1.96 µM
Block of background chloride current in sham transfects [1]: blocked

IC50 (X. tropicalis Tmem16a; [3]): > 30 µM
Compound: COC1=C(OC)C(=O)C(CCCCCCCCCCO)=C(C)C1=O [Idebenone]
% inhibition human TMEM16A by 10 µM (human TMEM16A; 10 µM, whole-cell patch clamp ref 61): 54%
% inhibition human TMEM16A by 30 µM (human TMEM16A; 30 µM, whole-cell patch clamp ref 61): 90%

Compound: COc1cc(Nc2ccc([N+](=O)[O-])cc2C(=O)O)cc2ccccc12 [MONNA]
IC50 (X. tropicalis Tmem16a; [3]): 11.9 ± 3.45 µM
IC50 (human TMEM16Aacd; whole-cell patch clamp ref 63): 13.6 µM

Compound: O=C(O)c1cccnc1Nc1cccc(C(F)(F)F)c1 [Niflumic acid]
IC50 (X. tropicalis Tmem16a): 85.1 ± 19.1 µM
IC50 (human TMEM16Aacd; whole-cell patch clamp ref 60): 12.1 µM
IC50 (human TMEM16Aacd; whole-cell patch clamp ref 61): 8.34 µM
IC50 (human TMEM16Aacd; whole-cell patch clamp ref 63): 8.54 µM

Direct inhibition of X. tropicalis Tmem16a channel function (X. tropicalis Tmem16a; maximal conductance, 338 nM free [Ca2+]i, +70 mV): did not directly inhibit
IC50 (X. tropicalis Tmem16a; [3]): > 30 µM
Compound: CCc1c(C)nc(SCC(=O)Nc2nc(-c3ccc(OC)cc3)cs2)[nH]c1=O [T16inh-A01]
IC50 (human TMEM16Aacd; whole-cell patch clamp ref 60): 1.51 µM
IC50 (human TMEM16Aacd; whole-cell patch clamp ref 63): > 30 µM

Compound: [Ca+2] [intracellular calcium, calcium]
EC50 (X. tropicalis Tmem16a; free [Ca2+]i varied, fixed depolarisation voltage, read-out: EC50 of intracellular calcium for current conductance): 0.227 ± 0.043 µM

Compound: tmem16a splice MO: antisense morpholino oligonucleotide 5'-AATGTTCATTCTTTTTACCTCTTCA-3' targeting donor splice site of exon 2 of tmem16a pre-mRNA (all phosphorodiamidate morpholino (PMO))
Increase of MucXS secretion from the tadpole skin [2]: 3 fold
Tmem16a protein in the plasma membrane of SSCs in the tadpole skin (Tmem16a): complete loss
